pIC50: −log10 of the molar value. Where two headings read alike, the source gives them in different places.
How the values were obtained:
[1] = tested on: H3K18Ac in HB-CLS-2 cells; test: H3K18AC in-cell western (ICW) assay; type: cell-based; settings: H3K18Ac in-cell western; read-out: CREBBP ICW IC50
Outline: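 In-cell western: after methanol fixation, blocking, overnight 4° C anti-H3K18Ac staining, then 800CW secondary plus DRAQ5 for DNA content, integrated intensities were scanned at 800 and 700 nm. Before this, compound exposure lasted 2 hr at 37° C in HB-CLS-2 cells plated 16–24 hours earlier. Values expressed as IC50 (μM).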

647V cells = test: High throughput proliferation (HTP) assay; type: cell-based; settings: high throughput proliferation, read-out: CREBBP HTP IC50
Outline: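 Proliferation IC50 (micromolar) derived from a 7-day CellTiter-Glo viable-cell readout in 647V cells exposed, in triplicate, to rising compound concentrations; cells grown in DMEM plus 15% heat-inactivated FBS at 37° C under 5% CO2.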

CREBBP (1084-1701) = target: T1, CREBBP (1084-1701) (Homo sapiens, UniProt Q92793); test: Biochemical assay for CREBBP (1084-1701), SAMDI; settings: SAMDI, read-out: CREBBP Biochemistry IC50
T1 construct: measured in the following biochemical assay using CREBBP (1084-1701); purchased
T1 sequence (Q92793 1084-1701): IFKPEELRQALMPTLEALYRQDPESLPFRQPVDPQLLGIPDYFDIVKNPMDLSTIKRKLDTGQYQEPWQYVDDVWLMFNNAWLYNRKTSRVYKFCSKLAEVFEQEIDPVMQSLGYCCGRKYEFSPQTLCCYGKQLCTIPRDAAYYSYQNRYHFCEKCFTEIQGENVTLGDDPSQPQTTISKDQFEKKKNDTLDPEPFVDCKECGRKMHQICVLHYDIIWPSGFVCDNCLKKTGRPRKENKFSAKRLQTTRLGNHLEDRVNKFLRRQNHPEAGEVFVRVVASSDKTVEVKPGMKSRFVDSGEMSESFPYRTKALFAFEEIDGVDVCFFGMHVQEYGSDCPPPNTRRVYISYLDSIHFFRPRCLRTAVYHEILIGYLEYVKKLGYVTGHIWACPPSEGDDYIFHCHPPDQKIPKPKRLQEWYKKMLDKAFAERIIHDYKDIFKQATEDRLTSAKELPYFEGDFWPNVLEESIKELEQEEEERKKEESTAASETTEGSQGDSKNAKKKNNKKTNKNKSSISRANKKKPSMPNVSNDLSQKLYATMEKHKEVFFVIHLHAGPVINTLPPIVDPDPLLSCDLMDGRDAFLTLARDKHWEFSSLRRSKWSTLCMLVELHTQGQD
Outline: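 Acetyltransferase activity measured by SAMDI mass spectrometry after capture on biochip. Enzyme sat with compound 30 min at RT before acetyl-CoA and biotinylated H3 11-25 (K14R, K23R) peptide were added for 30 min at RT. Formic acid quench, bicarbonate neutralisation; IC50 values reported.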

EP300 (P300(1048-1664)) = target: T2, EP300 (P300(1048-1664)) (Homo sapiens, UniProt Q09472); test: Biochemical assay for EP300, SAMDI; settings: EP300, SAMDI; read-out: EP300 Biochemistry IC50
T2 construct: P300(1048-1664)
T2 sequence (Q09472 1048-1664): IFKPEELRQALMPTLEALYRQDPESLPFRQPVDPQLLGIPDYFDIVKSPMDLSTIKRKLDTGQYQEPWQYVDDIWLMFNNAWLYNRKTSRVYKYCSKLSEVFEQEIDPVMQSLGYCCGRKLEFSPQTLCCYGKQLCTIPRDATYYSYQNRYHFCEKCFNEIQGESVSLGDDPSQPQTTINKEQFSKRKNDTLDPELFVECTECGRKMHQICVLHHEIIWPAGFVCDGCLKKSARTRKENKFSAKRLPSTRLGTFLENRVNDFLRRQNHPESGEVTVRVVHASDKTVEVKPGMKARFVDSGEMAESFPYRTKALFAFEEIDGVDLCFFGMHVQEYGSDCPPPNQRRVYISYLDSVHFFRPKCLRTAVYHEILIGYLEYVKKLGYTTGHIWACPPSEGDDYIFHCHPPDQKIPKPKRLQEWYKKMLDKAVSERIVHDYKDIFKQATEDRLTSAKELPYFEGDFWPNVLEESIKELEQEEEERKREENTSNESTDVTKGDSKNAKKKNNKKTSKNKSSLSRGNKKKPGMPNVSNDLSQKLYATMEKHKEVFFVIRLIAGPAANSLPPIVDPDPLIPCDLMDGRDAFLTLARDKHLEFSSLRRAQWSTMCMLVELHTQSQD
Text: The following example describes materials and methods relating to a biochemical assay for EP300. IC50 values (micromolar (μM)) are summarized in Table 1, Table 2, and Table 3 under the column labeled: “EP300 Biochemistry IC50 (micromolar).”

Row | pIC50 [1] | pIC50 (CREBBP (1084-1701)) | pIC50 (EP300 (P300(1048-1664))) | SMILES | pIC50 (647V cells; Homo sapiens, 647-V) | pIC50 (647V cells)
1 | 4.85 | 4.32 | 4.45 | CCn1ncc(CN(C)C(=O)c2nc(-c3nn(C)c(C(=O)NC)c3Cl)nc3ccc(Cl)cc23)c1C [Compound 448] | 4.90 | 
2 | 6.66 | 7.30 | 7.29 | CCn1ncc(CN(C)C(=O)c2cc(-c3ccc(NCCNC)c(C)n3)nc3ccc(C4CC4)cc23)c1C [Compound 449] | 6.87 | 
3 | 4.70 | ≤ 4.30 | 4.61 | CCn1ncc(CN(C)C(=O)c2nc(-c3cc(-c4ncon4)n(C)n3)nc3ccc(Cl)cc23)c1C [Compound 450] | 4.70 | 
4 | 4.89 | 5.52 | 5.41 | CCn1ncc(CN(C)C(=O)c2nc(-c3cc(C)c(OCCCNC)c(NC)c3)nc3ccc(Cl)cc23)c1C [Compound 451] | 5.64 | 
5 | 5.32 | 5.41 | 5.63 | CCn1ncc(CN(C)C(=O)c2nc(-c3ccc(OCCNC)c(Cl)c3)nc3ccc(S(C)(=O)=O)cc23)c1C [Compound 453] | 5.92 | 
6 | 6.85 | 7.64 | 8.26 | CCn1ncc(CN(C)C(=O)c2cc(-c3ccc(NC4COC4)c(C)n3)nc3ccc(Cl)cc23)c1C [Compound 454] | 6.88 | 
7 | 5.92 | 6.45 | 6.94 | CCn1ncc(CN(C)C(=O)c2nc(-c3cc4c(NC(C)=O)n[nH]c4cc3C)nc3ccc(Cl)cc23)c1C [Compound 455] | 6.26 | 
8 | 5.85 | 6.98 | 6.06 | CCN(Cc1cnn(CC)c1C)C(=O)c1cc(-c2ccc(NCCNC)c(C)n2)nc2ccc(Cl)cc12 [Compound 456] | 6.20 | 
9 | 6.73 | 7.81 | 8.24 | CCn1ncc(CN(C)C(=O)c2cc(-c3ccc(NCC(O)CNC)c(C)n3)nc3ccc(Cl)cc23)c1C (stereo not drawn) [Compound 457] | 7.38 | 
10 | 5.98 | 5.84 | 5.84 | CCn1ncc(CN(C)C(=O)c2nc(-c3cc(C)c4c(c3)NCCN4)nc3ccc(Cl)cc23)c1C [Compound 458] | 6.28 | 
11 | 7.22 | 7.86 | 8.35 | CCn1ncc(CN(C)C(=O)c2nc(-c3cc(C)c4c(N)[nH]nc4c3)nc3ccc(Cl)cc23)c1C [Compound 459] | 7.26 | 
12 | 4.70 | ≤ 4.30 | ≤ 4.30 | CCn1ncc(CN(C)C(=O)c2cc(-c3ccc(NCCNC)c(C)n3)nc3ccc(C(=O)N(C)C)cc23)c1C [Compound 460] | 4.70 | 
13 | 4.79 | 5.01 | 4.80 | CCn1ncc(CN(C)C(=O)c2nc(-c3ccc(OCCCNC)c(C(C)(C)C)c3)nc3ccc(Cl)cc23)c1C [Compound 462] | 5.85 | 
14 | 5.85 | 5.59 | 6.00 | CCn1ncc(CN(C)C(=O)c2nc(-c3cc(C)c4c(c3)NC(=O)C4)nc3ccc(Cl)cc23)c1C [Compound 463] | 5.82 | 
15 | 4.70 | 4.42 | 4.71 | CCn1ncc(CN(C)C(=O)c2nc(-c3ccc(OCCNC)c(Cl)c3)nc3ccc(CN(C)C)cc23)c1C [Compound 464] | 5.69 | 
16 | 5.31 | 6.44 | 5.83 | CCn1ncc(CN(C(=O)c2cc(-c3ccc(NCCNC)c(C)n3)nc3ccc(Cl)cc23)C(C)C)c1C [Compound 465] | 5.71 | 
17 | 6.69 | 7.53 | 7.15 | CCn1ncc(CN(C)C(=O)c2nc(-c3cc4c(N)noc4cc3C)nc3ccc(Cl)cc23)c1C [Compound 466] | 6.72 | 
18 | 4.70 | ≤ 4.30 | 4.47 | CCn1ncc(C(=O)N(C)Cc2cc(-c3ccc(NCCNC)c(C)n3)nc3ccc(Cl)cc23)c1C [Compound 467] | 5.25 | 

Row | pIC50 [1] | pIC50 (CREBBP (1084-1701)) | pIC50 (EP300 (P300(1048-1664))) | SMILES | pIC50 (647V cells; Homo sapiens, 647-V) | pIC50 (647V cells)
19 | 6.67 | 7.99 | 7.87 | CCn1ncc(CN(C)C(=O)c2nc(-c3cc(C)c4c(=O)[nH][nH]c4c3)nc3ccc(Cl)cc23)c1C [Compound 468] | 6.80 | 
20 | 7.25 | 7.72 | 7.96 | CCn1ncc(CN(C)C(=O)c2nc(-c3cc(C)nc(NCCN(C)C)c3)nc3ccc(Cl)cc23)c1C [Compound 469] | 7.53 | 
21 | 7.31 | 7.73 | 8.00 | CCn1ncc(CN(C)C(=O)c2nc(-c3cc(C)nc(NCCN(C)C)c3)nc3ccc(Cl)cc23)c1C [Compound 470] |  | 7.59
22 | 7.05 | 7.45 | 8.02 | CCn1ncc(CN(C)C(=O)c2cc(-c3ccc(NCCNC)c(C(F)(F)F)n3)nc3ccc(Cl)cc23)c1C [Compound 471] | 7.54 | 
23 | 6.88 | 7.59 | 8.00 | CCn1ncc(CN(C)C(=O)c2cc(-c3ccc(NC4CCNC4)c(C)n3)nc3ccc(Cl)cc23)c1C (stereo not drawn) [Compound 472] | 7.32 | 
24 | 6.14 | 6.49 | 6.41 | CCn1ncc(CN(C)C(=O)c2cc(-c3cc(CNC)cc(C)n3)nc3ccc(Cl)cc23)c1C [Compound 473] | 6.42 | 
25 | 5.18 | 4.64 | 4.84 | CCn1ncc(CN(C)C(=O)c2cc(-c3cnc(N)c(C)n3)nc3ccc(Cl)cc23)c1C [Compound 474] | 4.89 | 
26 | 6.05 | 6.04 | 6.01 | CCn1ncc(CN(C)C(=O)c2nc(-c3cc(C#N)c4nc[nH]c4c3)nc3ccc(COC)cc23)c1C [Compound 475] | 6.12 | 
27 | 6.42 | 7.55 | 8.19 | CCn1ncc(CN(C)C(=O)c2nc(-c3cc(C)cc(N[C@H]4CCNC4)c3)nc3ccc(Cl)cc23)c1C [Compound 476] | 6.69 | 
28 | 5.68 | 6.85 | 7.32 | CCc1ncc(CN(C)C(=O)c2cc(-c3ccc(OCC(O)CNC)c(C)n3)nc3ccc(COC)cc23)n1C (stereo not drawn) [Compound 477] | 5.89 | 
29 | 7.15 | 7.75 | 8.00 | CCn1ncc(CN(C)C(=O)c2nc(-c3cc(C)cc(NC4CCNC4)c3)nc3ccc(COC)cc23)c1C (stereo not drawn) [Compound 479] | 7.36 | 
30 | 6.50 | 7.22 | 7.52 | CCc1nc(-c2cc(C(=O)N(C)Cc3cnc(CC)n3C)c3cc(COC)ccc3n2)ccc1NCCNC [Compound 486] | 7.05 | 
31 | 5.62 | 5.14 | 5.22 | CCn1ncc(CN(C)C(=O)c2cc(-c3ccc(NCCNC)c(C)n3)nc3cc(COC)ccc23)c1C [Compound 492] | 5.78 | 
32 | 6.82 | 7.53 | 7.79 | CCn1ncc(CN(C)C(=O)c2nc(-c3cc(-c4ncc[nH]4)n(C)n3)nc3ccc(Cl)cc23)c1C [Compound 495] | 6.86 | 
33 | 6.03 | 6.78 | 7.22 | CCn1ncc(CN(C)C(=O)c2cc(-c3ccc(OCC(O)CNC)c(C)n3)nc3ccc(COC)cc23)c1C (stereo not drawn) [Compound 496] | 6.16 | 
34 | 5.79 | 6.07 | 6.18 | CCn1ncc(CN(C)C(=O)c2cc(-c3ccc(N4CC(N(C)C)C4)c(C)n3)nc3ccc(Cl)cc23)c1C [Compound 497] | 5.59 | 
35 | 5.26 | 5.29 | 5.30 | CCn1ncc(CN(C)C(=O)c2nc(-c3ccc(OCCNC)c(Cl)c3)nc3ccc(C4COC4)cc23)c1C [Compound 498] | 5.54 | 
36 | 6.86 | 7.83 | 8.46 | CCn1ncc(CN(C)C(=O)c2nc(-c3cc(N)c4cn[nH]c4c3)nc3ccc(COC)cc23)c1C [Compound 499] | 6.74 | 

Source: US20220144812A1, “QUINOLINE DERIVATIVES AND THEIR USE FOR THE TREATMENT OF CANCER” (Epizyme, Inc., priority 2019, published 2022)
